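The compound was tested at five concentrations on cells cultured in 96-well plates, with a 48-hour exposure period. GI50 = concentration required for 50% inhibition of growth.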 Active and inactive are the calls of the source. No stated cut-off is given here; in the data, active = GI50 up to about 1.1 µM and inactive = higher.

Test systems include SF-268; CAKI-1; OVCAR-8; TK-10; HOP-62; OVCAR-3; HOP-92; OVCAR-5; SF-295; MDA-N; M14; HT-29; SK-MEL-5; U-251; SN12C; HL-60; NCI-H460; SR; CCRF-CEM; Malme-3M.
Assay in all cases: growth of human tumour cells (NCI), 48 h

Consider `CC1(O)CCC(C(C)(C)O)CC1` (configuration not stated) [TERPIN], for which the GI50 in the experiment on SF-268, with CAKI-1, with OVCAR-8, in the experiment on TK-10, in the experiment with HOP-62 and in the experiment with OVCAR-3 was > 100 µM (inactive) throughout. The GI50 in the experiment with HOP-92, in the experiment with OVCAR-5, in the experiment with SF-295, in the experiment with MDA-N, with M14 and in the experiment on HT-29 was > 100 µM (inactive) each time. The GI50 with SK-MEL-5, in the experiment with U-251, in the experiment on SN12C, with HL-60, in the experiment with NCI-H460 and with SR was > 100 µM (inactive) each time. For the same compound, the GI50 in the experiment with CCRF-CEM is > 100 µM (inactive).

`Cc1cc(C)nc(NC(=S)Nc2ccc(Cl)cc2)c1`: the GI50 is 21.3 µM (inactive) with SF-268; 60.5 µM (inactive) in the experiment on CAKI-1; 20.1 µM (inactive) with OVCAR-8; 33.7 µM (inactive) with TK-10; 35.9 µM (inactive) in the experiment on HOP-62; > 100 µM (inactive) in the experiment on OVCAR-3. The GI50 in the experiment with Malme-3M is 34.8 µM (inactive); with OVCAR-5 it was 29.2 µM (inactive); in the experiment on SF-295, 43.1 µM (inactive); with MDA-N it was > 100 µM (inactive); in the experiment with M14 it was > 100 µM (inactive); in the experiment with HT-29, > 100 µM (inactive). For the same compound, the GI50 in the experiment with SK-MEL-5 was > 100 µM (inactive); in the experiment with U-251, 35.9 µM (inactive); in the experiment on SN12C it was > 100 µM (inactive); in the experiment with HL-60, > 100 µM (inactive); in the experiment with NCI-H460 it was 66.7 µM (inactive); with SR it was > 100 µM (inactive). Moreover, the GI50 in the experiment with CCRF-CEM was > 100 µM (inactive).

`CCN(CC)CCC(=O)/C=C/c1ccc(Cl)c(Cl)c1`: the GI50 in the experiment on SF-268 was 3.05 µM (inactive); in the experiment on OVCAR-8 it was 4.21 µM (inactive); with TK-10, 2.65 µM (inactive); in the experiment on HOP-62, > 10 µM (inactive); in the experiment on OVCAR-3, 8.61 µM (inactive); with Malme-3M it was 3.77 µM (inactive). Moreover, the GI50 is > 10 µM (inactive) in the experiment on HOP-92; 7.93 µM (inactive) in the experiment with OVCAR-5; > 10 µM (inactive) in the experiment with SF-295; 2.63 µM (inactive) with MDA-N; 3.52 µM (inactive) with M14; 4.76 µM (inactive) with U-251. Moreover, the GI50 was 1.86 µM (inactive) with SN12C; 0.302 µM (active) in the experiment on HL-60; 4.94 µM (inactive) with NCI-H460; 2.83 µM (inactive) in the experiment with SR; 2.45 µM (inactive) in the experiment on CCRF-CEM.

Consider `CCOC(=O)c1c(N)n(-c2ccccc2)c(=S)n(-c2ccccc2)c1=O`, for which the GI50 in the experiment on SF-268, in the experiment with OVCAR-8, in the experiment with TK-10, in the experiment with OVCAR-3, with Malme-3M and in the experiment on HOP-92 was > 100 µM (inactive) in each case. For the same compound, the GI50 in the experiment on OVCAR-5, in the experiment on SF-295, in the experiment on MDA-N, in the experiment with M14, in the experiment on HT-29 and with SK-MEL-5 was > 100 µM (inactive) throughout. For the same compound, the GI50 in the experiment on U-251, in the experiment with SN12C, in the experiment with HL-60, with NCI-H460, in the experiment with SR and in the experiment with CCRF-CEM was > 100 µM (inactive) in each case.

For the compound `CC(C)(C)OC(=O)Cn1ncn(NC(=O)Cc2ccccc2)c1=O`, the GI50 with SF-268, in the experiment on CAKI-1, with OVCAR-8, in the experiment on TK-10, in the experiment with HOP-62 and in the experiment with OVCAR-3 was > 10 µM (inactive) throughout. Further, the GI50 in the experiment on Malme-3M, with HOP-92, with OVCAR-5, in the experiment with SF-295, in the experiment with MDA-N and with M14 was > 10 µM (inactive) in each case. Besides, the GI50 with HT-29, in the experiment on SK-MEL-5, with U-251, in the experiment on SN12C, in the experiment with NCI-H460 and in the experiment on SR was > 10 µM (inactive) throughout. In addition, the GI50 with CCRF-CEM was > 10 µM (inactive).

Consider `COc1ccc(N(C)S(=O)(=O)c2ccccc2)cc1`, for which the GI50 in the experiment on SF-268, in the experiment on CAKI-1, in the experiment on OVCAR-8, in the experiment with TK-10, in the experiment on HOP-62 and in the experiment on OVCAR-3 was > 100 µM (inactive) each time. Besides, the GI50 in the experiment on Malme-3M, with OVCAR-5, with SF-295, in the experiment with MDA-N, in the experiment on M14 and in the experiment on HT-29 was > 100 µM (inactive) each time. The GI50 in the experiment on SK-MEL-5 is 61.8 µM (inactive); in the experiment with U-251, > 100 µM (inactive); in the experiment on SN12C, > 100 µM (inactive); in the experiment with HL-60 it was > 100 µM (inactive); in the experiment on NCI-H460 it was 94.8 µM (inactive); in the experiment on SR it was 87.9 µM (inactive). In addition, the GI50 in the experiment on CCRF-CEM was > 100 µM (inactive).

Turning to `COC(=O)C1Cc2cc3c(cc2C1=O)CCC3` (configuration not stated), the GI50 with SF-268, in the experiment with CAKI-1, in the experiment on OVCAR-8, in the experiment with TK-10, with HOP-62 and in the experiment on OVCAR-3 was > 100 µM (inactive) throughout. Besides, the GI50 in the experiment with Malme-3M, in the experiment on OVCAR-5, with SF-295, with MDA-N, with M14 and in the experiment on HT-29 was > 100 µM (inactive) in each case. Moreover, the GI50 in the experiment with SK-MEL-5 is > 100 µM (inactive); in the experiment on U-251, > 100 µM (inactive); in the experiment on SN12C it was 90.6 µM (inactive); with HL-60 it was > 100 µM (inactive); with NCI-H460, > 100 µM (inactive); in the experiment on SR, > 100 µM (inactive). Further, in the experiment with CCRF-CEM, the GI50 was 92.7 µM (inactive).

As for `CC(=O)N[C@@H](Cc1ccc(O)cn1)C(=O)NC1CCCCC1`, the GI50 with SF-268, in the experiment with CAKI-1, in the experiment on OVCAR-8, in the experiment with TK-10, with HOP-62 and in the experiment on OVCAR-3 was > 100 µM (inactive) each time. Also, the GI50 with HOP-92, in the experiment with OVCAR-5, in the experiment with SF-295, with MDA-N, in the experiment with M14 and in the experiment with HT-29 was > 100 µM (inactive) each time. The GI50 in the experiment with SK-MEL-5, in the experiment with U-251, in the experiment on SN12C, with SR and in the experiment with CCRF-CEM was > 100 µM (inactive) in each case.

Turning to `CCOC(=O)N(C)C(=C(F)F)C(F)(F)F`, the GI50 in the experiment on SF-268 was 25.2 µM (inactive); with OVCAR-8, 23.8 µM (inactive); in the experiment with TK-10 it was 27.8 µM (inactive); in the experiment with HOP-62 it was 25.2 µM (inactive); with OVCAR-3, 36 µM (inactive); with Malme-3M, 14.6 µM (inactive). The GI50 was 25.4 µM (inactive) in the experiment on HOP-92; 35.5 µM (inactive) in the experiment with OVCAR-5; 57.5 µM (inactive) with SF-295; 18.5 µM (inactive) in the experiment on MDA-N; 16.8 µM (inactive) with M14; 27 µM (inactive) with HT-29. The GI50 with SK-MEL-5 was 15.7 µM (inactive); in the experiment on U-251, 30.4 µM (inactive); in the experiment on SN12C, > 10 µM (inactive); with HL-60, 20.4 µM (inactive); in the experiment with NCI-H460, 28.6 µM (inactive); in the experiment with SR, 3.95 µM (inactive). Moreover, the GI50 with CCRF-CEM was 19.8 µM (inactive).

As for `CC(=O)Nc1cc(Nc2cc(O)nc(O)n2)ccc1C`, the GI50 in the experiment on SF-268, with OVCAR-8, in the experiment with TK-10, with HOP-62, in the experiment with OVCAR-3 and in the experiment with Malme-3M was > 100 µM (inactive) throughout. Besides, the GI50 in the experiment with HOP-92, in the experiment with OVCAR-5, in the experiment with SF-295, in the experiment on MDA-N, in the experiment on M14 and with SK-MEL-5 was > 100 µM (inactive) in each case. Moreover, the GI50 with U-251, in the experiment with SN12C, with HL-60, in the experiment with NCI-H460, in the experiment on SR and in the experiment on CCRF-CEM was > 100 µM (inactive) throughout.

Turning to `CC(CC(=O)N1C2CC3CCC2(CS1(=O)=O)C3(C)C)[Si](C)(C)C` (configuration not stated), the GI50 with SF-268, in the experiment on CAKI-1, in the experiment with OVCAR-8, in the experiment with TK-10, in the experiment with HOP-62 and with OVCAR-3 was > 100 µM (inactive) throughout. In addition, the GI50 in the experiment with Malme-3M, in the experiment on SF-295, in the experiment on MDA-N, with M14, with HT-29 and in the experiment on SK-MEL-5 was > 100 µM (inactive) each time. Further, the GI50 in the experiment on U-251, with SN12C, in the experiment with HL-60, in the experiment with NCI-H460, in the experiment with SR and in the experiment on CCRF-CEM was > 100 µM (inactive) each time.

The values are drawn from ChEMBL document CHEMBL1201862, “PubChem BioAssay data set” (2004).
